Experimental findings from patent US9511058B2, “Methods for using carboxamide, sulfonamide and amine compounds” (Rigel Pharmaceuticals, Inc., priority 2010, dated 2016) are described below.

A value given as a limit tells only on which side of the number the result lay.

For the first test, the target named is AMPK. Briefly: AMPK activation, enzyme-linked immunosorbent assay. The format is biochemical. The following applies: compounds of Table 1 (Table 6).
Regarding `O=C(N[C@@H]1CCN(Cc2cccnc2)C1)c1cc2cc(OC3CCN(c4ccc(C(F)(F)F)cc4)CC3)ccc2o1` [1-123, (R)-N-(1-(pyridin-3-ylmethyl)pyrrolidin-3-yl)-5-(1-(4-(trifluoromethyl)phenyl)piperidin-4-yloxy)benzofuran-2-carboxamide], the EC50 lay within 100 to 500 nM.
Compound `N#Cc1ccc(CN2CCC(NC(=O)c3sc4cc(OC5CCN(c6ccc(C(F)(F)F)cc6)CC5)ccc4c3Cl)CC2)cc1` [1-154, 3-chloro-N-(1-(4-cyanobenzyl)piperidin-4-yl)-6-(1-(4-(trifluoromethyl)phenyl)piperidin-4-yloxy)benzo[b]thiophene-2-carboxamide] had an EC50 of less than 100 nM.
Consider `NC(=O)c1ccc(CN2CCC(Oc3ccc4oc(C(=O)NC5CCN(Cc6ccncc6)CC5)cc4c3)CC2)cc1` [1-131, 5-(1-(4-carbamoylbenzyl)piperidin-4-yloxy)-N-(1-(pyridin-4-ylmethyl)piperidin-4-yl)benzofuran-2-carboxamide], for which the EC50 was 1000 to 5000 nM.
`O=C(N[C@H]1CCNC1)c1ccc(OC2CCN(c3ccc(C(F)(F)F)cc3)CC2)cn1` [1-27, (S)-N-(pyrrolidin-3-yl)-5-(1-(4-(trifluoromethyl)phenyl)piperidin-4-yloxy)picolinamide] showed an EC50 of more than 10000 nM.
`O=C(N[C@H]1CCN(Cc2ccncc2)C1)c1cc2cc(OC3CCN(Cc4ccc(Cl)cc4)CC3)ccc2o1` [1-129, (S)-5-(1-(4-chlorobenzyl)piperidin-4-yloxy)-N-(1-(pyridin-4-ylmethyl)pyrrolidin-3-yl)benzofuran-2-carboxamide]: the EC50 lay within 1000 to 5000 nM.
Compound `O=C(N[C@@H]1CCN(S(=O)(=O)c2cccnc2)C1)c1cc2cc(OC3CCN(c4ccc(C(F)(F)F)cc4)CC3)ccc2o1` [1-126, (R)-N-(1-(pyridin-3-ylsulfonyl)pyrrolidin-3-yl)-5-(1-(4-(trifluoromethyl)phenyl)piperidin-4-yloxy)benzofuran-2-carboxamide] returned a concentration for a half-maximal effect (EC50) of 1000 to 5000 nM.
The compound `O=C(NC1CCN(Cc2ccccc2)CC1)c1cc2cc(OC3CCN(Cc4cccc(C(F)(F)F)c4)CC3)ccc2o1` [1-73, N-(1-benzylpiperidin-4-yl)-5-(1-(3-(trifluoromethyl)benzyl)piperidin-4-yloxy)benzofuran-2-carboxamide] showed an EC50 of 500 to 1000 nM.
On to `O=C(N[C@@H]1CCN(Cc2ccc(F)cc2)C1)c1ccc(OC2CCN(c3ccc(C(F)(F)F)cc3)CC2)cn1` [1-34, (R)-N-(1-(4-fluorobenzyl)pyrrolidin-3-yl)-5-(1-(4-(trifluoromethyl)phenyl)piperidin-4-yloxy)picolinamide], for which the EC50 was 500 to 1000 nM.
Compound `O=C(NC1CCN(Cc2c[nH]cn2)CC1)c1ccc(OC2CCN(c3ccc(C(F)(F)F)cc3)CC2)cn1` [1-48, N-(1-((1H-imidazol-4-yl)methyl)piperidin-4-yl)-5-(1-(4-(trifluoromethyl)phenyl)piperidin-4-yloxy)picolinamide] showed an EC50 of 1000 to 5000 nM.
Take `CC(C)(C)OC(=O)N1CCC(NC(=O)c2ccnc(OC3CCN(c4ccc(C(F)(F)F)cc4)CC3)c2)CC1` [1-15, tert-butyl 4-(2-(1-(4-(trifluoromethyl)phenyl)piperidin-4-yloxy)isonicotinamido)piperidine-1-carboxylate]: the EC50 lay in the range of 1000 to 5000 nM.
With `N#Cc1ccc(CN2CCC(Oc3ccc4oc(C(=O)NC5CCN(Cc6ccncc6)CC5)cc4c3)CC2)cc1` [1-79, 5-(1-(4-cyanobenzyl)piperidin-4-yloxy)-N-(1-(pyridin-4-ylmethyl)piperidin-4-yl)benzofuran-2-carboxamide], the EC50 fell in the range of 100 to 500 nM.
For the compound `CC(C)(C)OC(=O)N1CC[C@@H](NC(=O)c2ccc(OC3CCN(c4ccc(C(F)(F)F)cc4)CC3)cn2)C1` [1-23, (R)-tert-butyl 3-(5-(1-(4-(trifluoromethyl)phenyl)piperidin-4-yloxy)picolinamido)pyrrolidine-1-carboxylate], the EC50 fell in the range of 100 to 500 nM.
Compound `O=C(NC1CCN(Cc2cccnc2)CC1)c1cncc(OC2CCN(c3ccc(C(F)(F)F)cc3)CC2)c1` [1-18, N-(1-(pyridin-3-ylmethyl)piperidin-4-yl)-5-(1-(4-(trifluoromethyl)phenyl)piperidin-4-yloxy)nicotinamide] displayed an EC50 of less than 100 nM.
`COC(=O)c1ccc(CN2CCC(NC(=O)c3ccc(OC4CCN(c5ccc(C#N)cc5)CC4)cn3)CC2)cc1` [1-7, methyl 4-((4-(5-(1-(4-cyanophenyl)piperidin-4-yloxy)picolinamido)piperidin-1-yl)methyl)benzoate] gave an EC50 of less than 100 nM.
As to `O=C(NC1CCN(Cc2ccncc2)CC1)c1cc2cc(OC3CCN(c4ccc(OC(F)(F)F)cc4)CC3)ccc2s1` [1-137, N-(1-(pyridin-4-ylmethyl)piperidin-4-yl)-5-(1-(4-(trifluoromethoxy)phenyl)piperidin-4-yloxy)benzo[b]thiophene-2-carboxamide], the EC50 was less than 100 nM.

Still in this test, the particulars now being: compounds of Table 2 (Table 7).
`N#Cc1ccc(S(=O)(=O)N2CCC(NC(=O)c3ccc4[nH]c5c(c4c3)CN(Cc3ccc(C(F)(F)F)cc3)CC5)CC2)cc1` [2-21, N-(1-(4-cyanophenyl-sulfonyl)piperidin-4-yl)-2-(4-(trifluoro-methyl)benzyl)-2,3,4,5-tetrahydro-1H-pyrido[4,3-b]indole-8-carboxamide] registered an EC50 of 500 to 1000 nM.
In turn, `O=C(NC1CCN(CCc2ccccc2)CC1)c1ccc2[nH]c3c(c2c1)CN(Cc1ccc(C(F)(F)F)cc1)CC3` [2-14, N-(1-phenethyl-piperidin-4-yl)-2-(4-(trifluoromethyl)benzyl)-2,3,4,5-tetrahydro-1H-pyrido[4,3-b]indole-8-carboxamide] yielded an EC50 of less than 500 nM.
Turning to `O=C(NC1CCN(S(=O)(=O)c2cccc(C(F)(F)F)c2)CC1)c1ccc2[nH]c3c(c2c1)CN(Cc1ccc(C(F)(F)F)cc1)CC3` [2-30, 2-(4-(trifluoromethyl)benzyl)-N-(1-(3-(trifluoromethyl)phenylsulfonyl)piperidin-4-yl)-2,3,4,5-tetrahydro-1H-pyrido[4,3-b]indole-8-carboxamide], the EC50 fell in the range of 1000 to 5000 nM.

Staying with this test, now noted: compounds of Table 3 (Table 8).
In the case of `NC(=O)c1ccc(CN2CC3CC2CN3C(=O)c2nc3ccc(OC4CCN(c5ccc(C(F)(F)F)cc5)CC4)cc3o2)cc1` (centres unmarked) [3-9, 4-((5-(6-(1-(4-(trifluoromethyl)phenyl)piperidin-4-yloxy)benzo[d]oxazole-2-carbonyl)-2,5-diazabicyclo[2.2.1]heptan-2-yl)methyl)benzamide], the EC50 lay within 100 to 1000 nM.
`N#Cc1ccc(CN2CCC(NC(=O)c3ccc(C(=O)N4CCN(c5ccc(Cl)cc5)CC4)cc3)CC2)cc1` [3-29, 4-(4-(4-chlorophenyl)piperazine-1-carbonyl)-N-(1-(4-cyanobenzyl)piperidin-4-yl)benzamide]: the EC50 is 10000 to 100000 nM.
In the case of `N#Cc1ccc(CN2CCC(NC(=O)c3ccc4c(c3)CN(Cc3ccc(C#N)cc3)CC4)CC2)cc1` [3-37, 2-(4-cyanobenzyl)-N-(1-(4-cyanobenzyl)piperidin-4-yl)-1,2,3,4-tetrahydroisoquinoline-7-carboxamide], the EC50 was less than 100 nM.
The compound `N#Cc1ccc(CN2CCC(NC(=O)c3cnc(OC4CCN(c5ccc(C(F)(F)F)cc5)CC4)cn3)CC2)cc1` [3-22, N-(1-(4-cyanobenzyl)piperidin-4-yl)-5-(1-(4-(trifluoromethyl)phenyl)piperidin-4-yloxy)pyrazine-2-carboxamide] registered a half-maximal effective concentration (EC50) of less than 100 nM.
In turn, `N#Cc1ccc(CN2CCC(NC(=O)c3cn4ccc(OC5CCN(c6ccc(C(F)(F)F)cc6)CC5)cc4n3)CC2)cc1` [3-18, N-(1-(4-cyanobenzyl)piperidin-4-yl)-7-(1-(4-(trifluoromethyl)phenyl)piperidin-4-yloxy)imidazo[1,2-a]pyridine-2-carboxamide] yielded an EC50 of less than 100 nM.

Staying with this test, now noted: compounds of Table 5 (Table 10).
Take `CN1CCC(NC(=O)c2ccc(OC3CCN(Cc4ccc(C(F)(F)F)cc4)CC3)c(Cl)c2)CC1` [5-58, 3-chloro-N-(1-methylpiperidin-4-yl)-4-(1-(4-(trifluoromethyl)benzyl)piperidin-4-yloxy)benzamide]: the EC50 was 1000 to 10000 nM.
`O=C(NC1CCN(Cc2ccccc2)CC1)c1cccc(OC2CCN(c3ccccn3)CC2)c1` [5-86, N-(1-benzylpiperidin-4-yl)-3-(1-(pyridin-2-yl)piperidin-4-yloxy)benzamide] displayed an EC50 of less than 1000 nM.
`O=C(NC1CCN(Cc2ccccc2)CC1)c1ccc(OC2CCN(C(=O)c3ccc(C(F)(F)F)cc3)CC2)c(Cl)c1` [5-18, N-(1-benzylpiperidin-4-yl)-3-chloro-4-(1-(4-(trifluoromethyl)benzoyl)piperidin-4-yloxy)benzamide] yielded an EC50 of less than 1000 nM.
`O=C(O)c1ccc(CN2CCC(NC(=O)c3ccc(OC4CCN(c5ccc(C(F)(F)F)cc5)CC4)c(F)c3)CC2)cc1` [5-35, 4-((4-(3-fluoro-4-(1-(4-(trifluoromethyl)phenyl)piperidin-4-yloxy)benzamido)piperidin-1-yl)methyl)benzoic acid] yielded an EC50 of 1000 to 10000 nM.
`N#Cc1ccc(CN2CCC(Oc3ccc(C(=O)NC4CCN(Cc5ccncc5)CC4)cc3)CC2)cc1` [5-83, 4-(1-(4-cyanobenzyl)piperidin-4-yloxy)-N-(1-(pyridin-4-ylmethyl)piperidin-4-yl)benzamide]: the EC50 is less than 1000 nM.
Same read-out and setting: the result for `O=C(NC1CCN(Cc2ccccc2)CC1)c1ccc(OC2CCN(c3ccco3)CC2)c(Cl)c1` [5-11, N-(1-benzylpiperidin-4-yl)-3-chloro-4-(1-(furan-2-yl)piperidin-4-yloxy)benzamide] reads 1000 to 10000 nM; that for `O=C(NC1CCN(Cc2ccccc2)CC1)c1ccc(OC2CCN(Cc3ccc(OC(F)(F)F)cc3)CC2)cc1` [5-63, N-(1-benzylpiperidin-4-yl)-4-(1-(4-(trifluoromethoxy)benzyl)piperidin-4-yloxy)benzamide], less than 1000 nM; that for `O=C(NC1CCN(Cc2ccccc2)CC1)c1ccc(OC2CCNCC2)c(Cl)c1` [5-93, N-(1-benzylpiperidin-4-yl)-3-chloro-4-(piperidin-4-yloxy)benzamide], more than 100000 nM.
Turning to `O=C(NC1CCN(Cc2ccccc2)CC1)c1cccc(OC2CCN(c3ccncc3)CC2)c1` [5-53, N-(1-benzylpiperidin-4-yl)-3-(1-(pyridin-4-yl)piperidin-4-yloxy)benzamide], the EC50 lay in the range of 10000 to 20000 nM.

Broadly, the EC50 is the concentration at which the effect is half-maximal. The low end stands for an effect from little substance, the high end for a need for much substance.
